Data reported in US20060029628A1, “Use of a volatile cooling sensate on fibrous tissues to provide a sensation of rhinological decongestion” (priority 2004, published 2006).

Experiment: Vapour pressure of the pure substance
Type: physicochemical
Conditions: about 20° C.
Method: “Volatility” according to the present invention is considered to be present for substances having a liquid or sublimation vapour pressure of the pure substance at 20° C. of at least about 0.013 Pascal (0.0001 mmHg), or at least about 0.1 Pascal. Vapour pressure can be measured according to ASTM Standard E1194-01 of November 2001. In certain embodiments according to the present invention, an upper limit for the vapour pressure of pure material should be less than about 67 Pascal (0.5 mmHg), or less than about 13 Pascal (0.1 mmHg) each at 20° C. Evaluation of whether a composition does vaporize sufficiently can be made by a panel of at least five people or by vapour head evaluation, e.g. with gas chromatography.

SMILES: CNC(=O)C(C)(C(C)C)C(C)C [WS-23, 2-Isopropyl-N,2,3-trimethylbutyramide]
- vapour pressure: about 0.53 Pascal
- vapour pressure (equivalent of the Pascal value): 0.004 mmHg
